The assay relates to MDA-MB-468 cells. Put plainly: MDA-MB-468 cell viability, CellTiter-Glo, 24 hrs. It counts as cell-based, human. As to conditions: 24 hrs incubation; for EC50: Homo sapiens. How it is done:
MDA-MB-468 cells, isolated from a pleural effusion of a patient with metastatic adenocarcinoma of the breast, is a triple negative breast cancer (TNBC) cell line. The IC 50 value of E05 or lapatinib (Sigma) or the structural analogues of E05 were tested in this cell line.
Briefly, MDA-MB-468 cells (ATCC #HTB-32) were seeded with a density of 5,000 cells per well in a 96 well white plate (Costar Cat #3917) in DMEM media supplemented with 10% FBS (assay medium). The plates were incubated at 37° C., 5% CO2 for 24 hr. E05 and analogues were diluted in the assay medium and added to the respective wells of the assay plate. The plates were further incubated at 37° C., 5% CO2 for 24 hrs. After the incubation, the cell viability was assessed using CellTiter-Glo® and the plates were read for luminescence using Cytation 5 (Biotek). The relative luminescence unit (RLU) obtained was plotted against the concentration and EC50 values were estimated using Graphpad Prism 5 software (FIG. 15 and Table 2).

We go through eight molecules from patent US20220370385A1, “COMPOSITIONS FOR USE IN INHIBITING SRC KINASE AND TREATING AND PREVENTING ASSOCIATED DISORDERS” (Enzene Biosciences Ltd., priority 2019, published 2022).

For `O=C(O)/C=C/c1ccc(O)c(O)c1` [E05_A], the concentration for a half-maximal effect (EC50) is 122 µM. For `O=C(O)CCc1ccc(O)cc1O` [E05_B, 3-(2,4-Hydroxyphenyl)-propionic acid], the “Activity (EC50)” value is “Inactive”. On the same count and under the same terms, the result for `O=C(O)CCc1cccc(O)c1` [E05_C, 3-(3-Hydoxyphenyl)-propionic acid] reads “Inactive”. Take `O=C(O)CCc1ccc(O)cc1` [E05_D, 3-(4-Hydroxyphenyl)-propionic acid (Phloretic acid)]: the “Activity (EC50)” value is “Inactive”.

In turn, `Oc1ccccc1O` [E05_E, 1,2-Dihydroxybenzene (Catechol)] showed a 50% effective concentration (EC50) of 103 µM. For the molecule `COc1ccc(C(=O)O)cc1O` [E05_F, 3-Hydroxy-4-methoxy-benzoic acid (Isovamillic acid)], the “Activity (EC50)” value is “Inactive”. Take `COc1cc(C(=O)O)ccc1O` [E05_G, 4-Hydroxy-3-methoxy-benzoic acid (Vanillic acid)]: the “Activity (EC50)” value is “Inactive”. Still for that read-out and setting: the result for `O=C(O)c1ccc(O)cc1O` [E05_H, 2,4-Dihydroxybenzoic acid] reads “Inactive”.
